Holding throughout (experiment): Fluorescence Assay
What all share (details): pH 7.5; 25 °C

One test addresses T1, Ephrin type-A receptor 3 (Homo sapiens, UniProt P29320).
T1 sequence (P29320 whole entry): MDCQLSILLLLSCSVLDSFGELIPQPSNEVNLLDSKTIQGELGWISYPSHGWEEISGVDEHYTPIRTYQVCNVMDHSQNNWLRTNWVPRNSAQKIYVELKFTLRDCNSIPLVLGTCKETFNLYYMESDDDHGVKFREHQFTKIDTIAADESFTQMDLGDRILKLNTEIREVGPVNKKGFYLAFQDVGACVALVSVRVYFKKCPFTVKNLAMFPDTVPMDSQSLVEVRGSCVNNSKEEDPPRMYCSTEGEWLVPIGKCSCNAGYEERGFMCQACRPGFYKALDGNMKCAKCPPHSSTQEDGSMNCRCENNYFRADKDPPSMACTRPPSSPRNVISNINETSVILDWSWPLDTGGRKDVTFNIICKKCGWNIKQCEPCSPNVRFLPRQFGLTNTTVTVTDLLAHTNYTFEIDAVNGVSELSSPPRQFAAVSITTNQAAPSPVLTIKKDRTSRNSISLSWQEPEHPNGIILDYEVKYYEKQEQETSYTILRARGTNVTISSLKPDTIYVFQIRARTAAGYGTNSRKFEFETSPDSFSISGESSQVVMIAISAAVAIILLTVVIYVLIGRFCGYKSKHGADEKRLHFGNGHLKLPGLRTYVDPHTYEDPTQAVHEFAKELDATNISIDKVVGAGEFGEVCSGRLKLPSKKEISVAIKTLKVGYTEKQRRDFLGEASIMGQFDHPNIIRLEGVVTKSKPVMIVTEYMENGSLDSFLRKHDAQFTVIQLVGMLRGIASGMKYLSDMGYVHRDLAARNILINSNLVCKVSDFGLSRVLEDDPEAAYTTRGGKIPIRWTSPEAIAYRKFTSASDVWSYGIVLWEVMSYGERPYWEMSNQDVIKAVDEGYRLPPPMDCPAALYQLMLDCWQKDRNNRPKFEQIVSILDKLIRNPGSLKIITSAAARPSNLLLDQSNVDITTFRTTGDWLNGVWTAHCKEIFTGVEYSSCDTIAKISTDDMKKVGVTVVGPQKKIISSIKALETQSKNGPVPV
An excerpt:
(§1) Fluorescence assay used for determination of catch and release efficiency.

For test [1], the target named is T2, Interleukin-1 receptor-associated kinase 4 (Homo sapiens, UniProt Q9NWZ3).
T2 sequence (Q9NWZ3 whole entry): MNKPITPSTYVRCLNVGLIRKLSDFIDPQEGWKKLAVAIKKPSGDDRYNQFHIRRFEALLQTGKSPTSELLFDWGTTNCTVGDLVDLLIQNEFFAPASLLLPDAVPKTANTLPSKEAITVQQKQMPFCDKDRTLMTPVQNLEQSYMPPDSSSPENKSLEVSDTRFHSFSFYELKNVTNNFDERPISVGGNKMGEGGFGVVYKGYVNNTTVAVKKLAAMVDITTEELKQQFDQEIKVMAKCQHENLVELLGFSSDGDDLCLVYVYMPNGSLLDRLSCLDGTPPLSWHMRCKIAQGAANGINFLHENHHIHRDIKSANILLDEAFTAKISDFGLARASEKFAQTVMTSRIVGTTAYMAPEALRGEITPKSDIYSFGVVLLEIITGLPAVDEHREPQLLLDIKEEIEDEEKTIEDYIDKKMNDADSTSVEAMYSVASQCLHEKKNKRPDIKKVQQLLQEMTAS
Source text: as §1

Test [2] addresses T3, Mitogen-activated protein kinase kinase kinase 5 (Homo sapiens, UniProt Q99683).
T3 sequence (Q99683 whole entry): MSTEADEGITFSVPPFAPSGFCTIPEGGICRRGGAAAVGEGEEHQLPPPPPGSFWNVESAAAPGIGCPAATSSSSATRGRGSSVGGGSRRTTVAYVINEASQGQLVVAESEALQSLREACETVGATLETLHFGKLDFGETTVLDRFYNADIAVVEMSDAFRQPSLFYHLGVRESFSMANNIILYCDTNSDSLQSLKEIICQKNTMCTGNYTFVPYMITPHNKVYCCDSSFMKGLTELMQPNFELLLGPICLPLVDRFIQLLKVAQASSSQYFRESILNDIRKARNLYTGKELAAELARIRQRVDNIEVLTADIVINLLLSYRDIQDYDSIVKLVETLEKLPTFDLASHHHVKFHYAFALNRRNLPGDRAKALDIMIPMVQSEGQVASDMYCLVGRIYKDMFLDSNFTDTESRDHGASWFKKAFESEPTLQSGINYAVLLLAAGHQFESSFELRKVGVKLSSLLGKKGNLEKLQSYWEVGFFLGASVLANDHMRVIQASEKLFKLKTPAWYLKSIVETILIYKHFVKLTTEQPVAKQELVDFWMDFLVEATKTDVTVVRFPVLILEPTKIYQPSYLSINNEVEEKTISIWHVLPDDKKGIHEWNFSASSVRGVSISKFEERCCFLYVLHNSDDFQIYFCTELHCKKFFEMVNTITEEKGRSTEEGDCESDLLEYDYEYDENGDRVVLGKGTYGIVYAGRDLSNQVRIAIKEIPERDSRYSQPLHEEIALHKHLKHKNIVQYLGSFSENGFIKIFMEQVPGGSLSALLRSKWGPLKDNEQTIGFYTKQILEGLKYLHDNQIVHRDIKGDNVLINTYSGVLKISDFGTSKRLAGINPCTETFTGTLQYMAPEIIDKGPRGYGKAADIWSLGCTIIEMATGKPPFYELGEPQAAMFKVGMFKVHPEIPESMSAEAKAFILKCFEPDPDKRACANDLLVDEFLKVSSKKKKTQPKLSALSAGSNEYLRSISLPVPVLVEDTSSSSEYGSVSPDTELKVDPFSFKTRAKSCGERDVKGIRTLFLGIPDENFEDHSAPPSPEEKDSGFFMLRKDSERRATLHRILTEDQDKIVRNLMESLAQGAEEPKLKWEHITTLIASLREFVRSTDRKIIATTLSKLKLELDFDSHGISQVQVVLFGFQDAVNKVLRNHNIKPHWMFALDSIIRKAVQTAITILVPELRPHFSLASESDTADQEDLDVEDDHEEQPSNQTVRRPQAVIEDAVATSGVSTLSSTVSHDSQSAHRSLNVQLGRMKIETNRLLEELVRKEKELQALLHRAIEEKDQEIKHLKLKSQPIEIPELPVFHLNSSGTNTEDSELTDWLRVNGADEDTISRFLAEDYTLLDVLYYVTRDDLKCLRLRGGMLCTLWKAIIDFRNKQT
Source text: as §1

The target in test [3] is Proto-oncogene tyrosine-protein kinase Src (Homo sapiens, UniProt P12931).
Source text: as §1

Test [4] concerns the target Serine/threonine-protein kinase 10 (Homo sapiens, UniProt O94804).
Source text: as §1

Test [5] concerns the target Serine/threonine-protein kinase PAK 4 (Homo sapiens, UniProt O96013).
Source text: as §1

For test [6], the target named is Serine/threonine-protein kinase PAK 5 (Homo sapiens, UniProt Q9P286).
Source text: as §1

Test [7] concerns the target Tyrosine-protein kinase ABL1 (Homo sapiens, UniProt P00519).
Source text: as §1

For test [8], the target named is Tyrosine-protein kinase CSK (Homo sapiens, UniProt P41240).
Source text: as §1

In test [9] the target is Tyrosine-protein kinase HCK (Homo sapiens, UniProt P08631).
Source text: as §1

Test [10] addresses Tyrosine-protein kinase Lck (Homo sapiens, UniProt P06239).
Source text: as §1

Chain of Serine/threonine-protein kinase 10 (O94804 whole entry): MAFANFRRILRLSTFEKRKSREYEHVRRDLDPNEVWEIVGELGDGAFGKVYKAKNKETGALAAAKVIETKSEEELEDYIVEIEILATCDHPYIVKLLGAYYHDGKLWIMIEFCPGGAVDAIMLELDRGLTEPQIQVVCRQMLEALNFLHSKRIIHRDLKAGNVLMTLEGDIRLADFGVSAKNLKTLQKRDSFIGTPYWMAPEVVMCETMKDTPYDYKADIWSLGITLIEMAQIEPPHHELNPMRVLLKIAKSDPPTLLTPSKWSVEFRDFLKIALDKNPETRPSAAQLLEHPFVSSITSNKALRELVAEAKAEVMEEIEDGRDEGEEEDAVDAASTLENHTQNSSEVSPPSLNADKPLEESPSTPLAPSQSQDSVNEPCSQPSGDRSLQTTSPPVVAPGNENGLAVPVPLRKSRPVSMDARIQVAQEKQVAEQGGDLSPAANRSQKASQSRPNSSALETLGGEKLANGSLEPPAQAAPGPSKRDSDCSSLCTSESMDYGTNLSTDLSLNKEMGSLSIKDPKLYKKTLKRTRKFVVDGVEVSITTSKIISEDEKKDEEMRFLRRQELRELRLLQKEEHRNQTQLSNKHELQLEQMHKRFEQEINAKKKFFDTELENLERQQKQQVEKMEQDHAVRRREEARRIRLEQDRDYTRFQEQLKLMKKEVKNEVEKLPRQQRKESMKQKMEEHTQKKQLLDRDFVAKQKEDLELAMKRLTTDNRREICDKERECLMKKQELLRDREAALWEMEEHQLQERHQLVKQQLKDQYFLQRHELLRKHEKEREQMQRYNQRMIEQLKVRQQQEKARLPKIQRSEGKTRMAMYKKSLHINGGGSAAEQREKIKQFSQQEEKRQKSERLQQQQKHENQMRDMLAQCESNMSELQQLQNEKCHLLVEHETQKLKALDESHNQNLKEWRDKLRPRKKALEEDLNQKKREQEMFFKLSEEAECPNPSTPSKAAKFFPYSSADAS
Chain of Tyrosine-protein kinase CSK (P41240 whole entry): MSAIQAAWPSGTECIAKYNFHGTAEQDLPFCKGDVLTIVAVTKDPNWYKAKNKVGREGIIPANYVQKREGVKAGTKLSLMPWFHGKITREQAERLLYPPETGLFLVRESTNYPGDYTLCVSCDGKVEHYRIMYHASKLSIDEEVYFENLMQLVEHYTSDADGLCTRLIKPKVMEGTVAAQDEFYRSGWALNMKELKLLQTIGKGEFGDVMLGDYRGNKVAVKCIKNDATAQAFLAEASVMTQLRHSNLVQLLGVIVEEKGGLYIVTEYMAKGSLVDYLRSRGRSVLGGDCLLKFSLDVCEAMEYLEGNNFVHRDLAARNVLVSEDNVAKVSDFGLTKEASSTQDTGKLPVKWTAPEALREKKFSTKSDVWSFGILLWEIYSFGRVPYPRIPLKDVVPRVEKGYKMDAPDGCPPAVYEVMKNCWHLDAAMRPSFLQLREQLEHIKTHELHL
Chain of Proto-oncogene tyrosine-protein kinase Src (P12931 2-536 limits assumed): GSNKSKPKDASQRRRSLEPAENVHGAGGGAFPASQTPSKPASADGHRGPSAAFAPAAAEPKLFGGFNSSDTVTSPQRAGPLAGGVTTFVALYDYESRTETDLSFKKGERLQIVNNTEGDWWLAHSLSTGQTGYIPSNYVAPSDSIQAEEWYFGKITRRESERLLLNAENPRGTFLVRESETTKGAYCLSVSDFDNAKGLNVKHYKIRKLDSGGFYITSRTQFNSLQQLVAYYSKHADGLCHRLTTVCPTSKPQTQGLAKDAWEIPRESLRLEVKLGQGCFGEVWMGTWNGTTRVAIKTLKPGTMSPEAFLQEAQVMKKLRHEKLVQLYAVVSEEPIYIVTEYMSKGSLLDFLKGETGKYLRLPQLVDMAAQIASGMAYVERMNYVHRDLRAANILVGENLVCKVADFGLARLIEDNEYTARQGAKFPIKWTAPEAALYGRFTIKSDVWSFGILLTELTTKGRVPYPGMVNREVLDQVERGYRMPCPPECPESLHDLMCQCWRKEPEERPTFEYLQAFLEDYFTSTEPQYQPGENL
Chain of Tyrosine-protein kinase Lck (P06239 whole entry): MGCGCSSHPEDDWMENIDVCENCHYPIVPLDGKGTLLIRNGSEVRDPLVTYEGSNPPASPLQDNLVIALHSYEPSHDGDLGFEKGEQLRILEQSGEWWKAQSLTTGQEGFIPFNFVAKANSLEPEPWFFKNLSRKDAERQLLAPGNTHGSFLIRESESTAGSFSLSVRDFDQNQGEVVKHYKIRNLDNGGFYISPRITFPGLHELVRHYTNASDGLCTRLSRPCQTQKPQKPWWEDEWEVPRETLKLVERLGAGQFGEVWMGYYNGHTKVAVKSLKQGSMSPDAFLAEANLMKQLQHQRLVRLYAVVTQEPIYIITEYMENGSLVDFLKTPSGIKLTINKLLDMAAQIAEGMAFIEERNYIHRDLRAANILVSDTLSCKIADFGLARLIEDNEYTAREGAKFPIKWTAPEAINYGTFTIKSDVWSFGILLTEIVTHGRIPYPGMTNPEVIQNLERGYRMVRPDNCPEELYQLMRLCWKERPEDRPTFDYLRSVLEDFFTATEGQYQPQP
Chain of Serine/threonine-protein kinase PAK 5 (Q9P286 whole entry): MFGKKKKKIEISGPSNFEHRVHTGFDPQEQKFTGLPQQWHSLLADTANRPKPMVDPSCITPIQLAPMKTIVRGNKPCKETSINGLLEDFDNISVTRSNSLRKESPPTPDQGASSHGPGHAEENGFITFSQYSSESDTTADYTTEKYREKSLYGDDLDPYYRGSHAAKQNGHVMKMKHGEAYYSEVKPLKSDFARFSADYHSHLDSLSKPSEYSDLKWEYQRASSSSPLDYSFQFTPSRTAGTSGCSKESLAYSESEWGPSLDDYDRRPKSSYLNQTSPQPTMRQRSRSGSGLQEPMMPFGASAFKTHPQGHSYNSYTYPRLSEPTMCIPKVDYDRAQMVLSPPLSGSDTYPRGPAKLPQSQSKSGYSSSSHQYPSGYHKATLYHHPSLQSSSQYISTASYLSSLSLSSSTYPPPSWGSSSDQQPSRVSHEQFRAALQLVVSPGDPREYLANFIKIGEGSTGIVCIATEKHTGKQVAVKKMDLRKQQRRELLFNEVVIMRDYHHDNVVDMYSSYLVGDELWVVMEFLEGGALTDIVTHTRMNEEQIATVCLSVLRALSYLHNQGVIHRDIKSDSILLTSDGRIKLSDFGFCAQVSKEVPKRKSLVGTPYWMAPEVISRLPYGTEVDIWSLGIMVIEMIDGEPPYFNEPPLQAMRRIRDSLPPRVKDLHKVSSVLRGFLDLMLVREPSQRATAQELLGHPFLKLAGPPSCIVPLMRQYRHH
Chain of Serine/threonine-protein kinase PAK 4 (O96013 whole entry): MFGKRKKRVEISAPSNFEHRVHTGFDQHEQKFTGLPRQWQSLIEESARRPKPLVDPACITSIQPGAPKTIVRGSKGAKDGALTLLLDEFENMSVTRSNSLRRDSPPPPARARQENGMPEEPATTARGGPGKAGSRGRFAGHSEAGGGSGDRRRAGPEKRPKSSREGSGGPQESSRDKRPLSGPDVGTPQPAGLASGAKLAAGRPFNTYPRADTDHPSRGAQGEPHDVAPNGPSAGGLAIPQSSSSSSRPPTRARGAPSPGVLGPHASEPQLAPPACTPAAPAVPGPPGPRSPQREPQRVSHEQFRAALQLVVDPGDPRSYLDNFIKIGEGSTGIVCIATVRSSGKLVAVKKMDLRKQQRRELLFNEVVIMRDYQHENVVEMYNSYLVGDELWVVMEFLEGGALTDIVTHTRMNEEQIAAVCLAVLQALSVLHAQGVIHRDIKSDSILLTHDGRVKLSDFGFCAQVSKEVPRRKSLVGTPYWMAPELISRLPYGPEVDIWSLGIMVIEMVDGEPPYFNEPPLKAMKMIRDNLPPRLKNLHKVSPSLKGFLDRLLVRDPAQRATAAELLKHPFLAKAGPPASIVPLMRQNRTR
Chain of Tyrosine-protein kinase ABL1 (P00519 whole entry): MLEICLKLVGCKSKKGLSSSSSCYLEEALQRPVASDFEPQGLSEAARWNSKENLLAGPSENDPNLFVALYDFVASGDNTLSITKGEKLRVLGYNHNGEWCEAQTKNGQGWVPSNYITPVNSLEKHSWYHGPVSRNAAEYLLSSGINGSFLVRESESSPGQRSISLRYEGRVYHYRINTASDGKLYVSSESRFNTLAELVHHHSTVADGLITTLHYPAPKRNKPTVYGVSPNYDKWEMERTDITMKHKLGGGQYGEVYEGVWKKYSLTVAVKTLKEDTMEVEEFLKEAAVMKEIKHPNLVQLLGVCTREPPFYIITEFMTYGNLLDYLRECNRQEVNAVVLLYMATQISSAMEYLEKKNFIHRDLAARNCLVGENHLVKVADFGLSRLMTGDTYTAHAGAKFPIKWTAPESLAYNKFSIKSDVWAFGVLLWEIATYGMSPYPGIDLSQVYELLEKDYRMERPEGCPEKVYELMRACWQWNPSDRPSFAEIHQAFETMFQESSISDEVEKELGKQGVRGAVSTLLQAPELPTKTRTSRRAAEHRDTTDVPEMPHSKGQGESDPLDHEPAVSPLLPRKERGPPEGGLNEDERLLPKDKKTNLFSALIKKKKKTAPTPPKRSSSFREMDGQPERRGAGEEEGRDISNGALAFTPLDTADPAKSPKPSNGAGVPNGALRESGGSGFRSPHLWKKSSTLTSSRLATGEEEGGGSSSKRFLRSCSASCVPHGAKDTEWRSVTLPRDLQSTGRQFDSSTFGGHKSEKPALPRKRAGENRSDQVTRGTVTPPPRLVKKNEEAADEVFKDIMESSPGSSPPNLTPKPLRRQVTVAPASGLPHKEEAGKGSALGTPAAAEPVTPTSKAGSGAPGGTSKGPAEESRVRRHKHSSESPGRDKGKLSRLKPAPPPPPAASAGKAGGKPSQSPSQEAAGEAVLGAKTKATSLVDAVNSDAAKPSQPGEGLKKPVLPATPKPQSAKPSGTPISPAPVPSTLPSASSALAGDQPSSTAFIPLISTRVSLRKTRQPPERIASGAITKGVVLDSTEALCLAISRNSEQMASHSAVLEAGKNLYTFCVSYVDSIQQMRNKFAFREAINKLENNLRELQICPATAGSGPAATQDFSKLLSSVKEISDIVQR

Take `Cc1ccc(NC(=O)c2cccc(C(F)(F)F)c2)cc1-c1ccc2nc(Nc3ccc(OCCN)cc3)ncc2c1` [Kinase inhibitor, 5]: the IC50 against Ephrin type-A receptor 3 was less than 10 nM; in test [1], greater than 10000 nM; in test [2] it was greater than 10000 nM; in [3] it was less than 2 nM; in test [4] it was less than 10 nM; in test [5], greater than 10000 nM. For the same compound, the IC50 in test [6] is greater than 10000 nM; in [7] it was less than 2 nM; in test [8], 8.4 nM; in test [9], less than 0.5 nM; in test [10], less than 2 nM.

Values taken from BindingDB's records for doi:10.1021/cb300623a (University of Washington, 2013).
